Results taken from patent publication US4496543A, “Polypeptides, processes for their production, pharmaceutical compositions comprising said polypeptides and their use” (Sandoz Ltd., priority 1982, dated 1985).

System: serum GH-level
Assay: TEST I: depression of serum GH-levels in the rat (GH-secretion inhibiting activity)
Type: in vivo
Conditions: male rats under Nembutal narcosis, s.c., activity at 60 minutes, serum GH by radio-immuno-assay
Method: This test (TEST I) is carried out employing male rats under Nembutal narcosis. The test-substance is administered at varying, logarithmically staggered doses employing at least 4 rats per dose. The rats are decapitated 60 minutes after administration, the blood is collected and the serum GH-level determined by radio-immuno-assay.
The above test may be adapted to determine effectiveness over prolonged periods of time, e.g. by decapitating 6 or 18 hours after administration. "Polypeptides of Type-T" as hereinbefore defined may be shown to be active in the above described test method when administered at dosages in the aforesaid range, over longer periods of time, e.g. up to 18 hours.

C[C@H](N)C(=O)NCC(=O)N[C@H]1CSSC[C@@H](C(=O)O)NC(=O)[C@H](CO)NC(=O)[C@H]([C@@H](C)O)NC(=O)[C@H](Cc2ccccc2)NC(=O)[C@H]([C@@H](C)O)NC(=O)[C@H](CCCCN)NC(=O)[C@H](Cc2c[nH]c3ccccc23)NC(=O)[C@H](Cc2ccccc2)NC(=O)[C@H](Cc2ccccc2)NC(=O)[C@H](CC(N)=O)NC(=O)[C@H](CCCCN)NC1=O [somatostatin]
ID50 in TEST I (amount of compound required to effect 50% reduction of the GH-level compared with untreated controls): 0.093 mg/kg
